Data on 22 compounds can be found in US20250382274A1, “COMPOSITIONS AND METHODS FOR THE TREATMENT OF PARKINSON'S AND GAUCHER DISEASE” (CHILDREN'S HOSPITAL MEDICAL CENTER, priority 2024, published 2025).

Substitutions are numbered along the chain they refer to.

By AC50 is commonly meant the concentration at which the activity in the assay is half-maximal. A lower AC50 goes with greater potency. One may read the EC50 as the midpoint of the concentration-response curve. The low end stands for a more potent agent, the high end for a less potent agent.

Assay [1] addresses T1, GCase (purified enzyme, Velaglucerase alfa, VPRIV) (Homo sapiens, UniProt P04062).
T1 construct: purchased Shire Human Genetic Therapies, Cambridge, MA
T1 sequence (P04062 40-536): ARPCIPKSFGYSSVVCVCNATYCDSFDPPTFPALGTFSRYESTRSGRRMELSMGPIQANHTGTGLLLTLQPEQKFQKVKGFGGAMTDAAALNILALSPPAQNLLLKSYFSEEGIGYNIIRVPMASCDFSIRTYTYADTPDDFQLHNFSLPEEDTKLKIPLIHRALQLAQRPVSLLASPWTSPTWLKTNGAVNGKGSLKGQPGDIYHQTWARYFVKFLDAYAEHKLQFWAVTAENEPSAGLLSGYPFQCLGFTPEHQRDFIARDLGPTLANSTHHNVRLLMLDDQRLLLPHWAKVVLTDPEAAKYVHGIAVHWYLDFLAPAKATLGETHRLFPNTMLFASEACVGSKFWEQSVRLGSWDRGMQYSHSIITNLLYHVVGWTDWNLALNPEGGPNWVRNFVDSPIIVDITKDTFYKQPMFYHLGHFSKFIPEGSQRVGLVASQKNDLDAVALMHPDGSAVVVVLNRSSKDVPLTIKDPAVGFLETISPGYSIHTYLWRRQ
Nature of the assay: GCase AC50 enzyme activity assay. The conditions noted are these: pH 5.6, 4-MuGlu substrate, compounds 0-40 μM. Format: biochemical. On the procedure: An in vitro enzyme assay was performed through a dose response curve of Compounds (0-40 μM) with purified enzyme (Velaglucerase alfa, VPRIV®, Shire Human Genetic Therapies, Cambridge, MA) in citric phosphate [0.025 mM] buffer (pH 5.6) where 4-MuGlu [4 mM] was the substrate. Compounds were pre-incubated with the enzyme for 40 minutes at room temperature prior to substrate addition, and then incubated at 37° C. for 1 hour. AC50 represents the concentration of a Compound that produces 50% of its maximal response in the in vitro GCase activity assay.
(§1) GCase activities were determined fluorometrically with 4-MuGlu. The relative fluorescence unit (RFU) of 4-MuGlu standard curve is generated with the plate reader (M5, Molecular Devise) as 1 n mole=56500 RFU. The human mutant Gaucher fibroblasts were purchased from Coriell Institute (Camden, NJ): N370/ΔGG (Cat #: GM00852) and L444P/L444P (cat #: GM00877)

Assay [2] concerns the target T2, GCase in healthy human fibroblasts (Homo sapiens, UniProt P04062).
T2 construct: Healthy human fibroblasts (GCase cell); endogenous in cells; host or cells: healthy human fibroblasts
T2 sequence (P04062 40-536): T1 sequence (P04062 40-536)
Put plainly: EC50 cell-based assay for GCase, healthy human fibroblasts (GCase cell). To be noted: 5 days compound treatment (0-20 μM). How it is done: (§2) In cell assays, GCase activity measurements were carried out on harvested cell pellets on the 5th day of Compound treatment. Healthy human fibroblasts (GCase cell), mutant N370/ΔGG (GCase N370S) or L444P/L444P (GCase L444P) were incubated with the Compound (0-20 μM) for 5 days with 15% fetal bovine serum (FBS) in Dulbecco's Modified Eagle Medium (DMEM) in 100 mm culture dishes. Fresh Medium with Compound were replaced every other day. On the 5th day of Compound treatment, harvested cell pellets were lysed with 1% Na-taurocholate (Tc) and 1% Triton X-100 (Tx), and mixed with the reaction buffer which contained 0.025 mM Citric phosphate buffer (pH 5.6), 0.25% Tc/Tx and 4 mM 4-MuGlu, then incubated at 37° C. for 1 hour. EC50 represents the concentration of a Compound that produces 50% of its maximal response in the cell-based GCase activity assay.
as §1

In assay [3] the target is T3, GCase N370S (N370/ΔGG human mutant Gaucher fibroblasts) (Homo sapiens, UniProt P04062, N409S).
T3 construct: The human mutant Gaucher fibroblasts were purchased from Coriell Institute; host or cells: human Gaucher fibroblasts N370/ΔGG
T3 sequence (P04062 40-536 N409S): T1 sequence (P04062 40-536) with N370S
Nature of the assay: EC50 cell-based assay for GCase, mutant N370/ΔGG fibroblasts (GCase N370S). The conditions noted are these: 5 days compound treatment (0-20 μM). How it is done: as §2, §1

In assay [1], `O=C(COc1ccccc1C(=O)NCC1CCO1)Nc1ccc(Br)cc1` (centres unmarked) [Compound 2, 2-((4-bromophenylcarbamoyl)methoxy)-N-((oxetan-2-yl)methyl)benzamide] came in with an AC50 of under 10 µM. In addition, the EC50 is 10 to 100 µM in assay [2] and under 10 µM in assay [3].

`O=C(Nc1ccc(Br)cc1)c1nc2cccc(C(=O)NCC3CCCO3)c2o1` (centres unmarked) [Compound 4, N2-(4-bromophenyl)-N7-((tetrahydrofuran-2-yl)methyl)benzo[d]oxazole-2,7-dicarboxamide]: in assay [1], the AC50 was under 10 µM. Besides, the EC50 in assay [2] and in assay [3] was under 10 µM throughout.

`O=C(NC1CCC(F)(F)CC1)c1nc2cc(F)cc(C(=O)NCC3CCO3)c2o1` (centres unmarked) [Compound 28, N2-(4,4-difluorocyclohexyl)-5-fluoro-N7-(oxetan-2-ylmethyl)benzo[d]oxazole-2,7-dicarboxamide]: the AC50 in assay [1] was 10 to 100 µM. In assay [2], this compound returned an EC50 of under 10 µM.

`COc1ccc(NC(=O)N2Cc3cccc(C(=O)NCC4CCO4)c3C2)cc1` (centres unmarked) [Compound 30, N2-(4-methoxyphenyl)-N4-((oxetan-2-yl)methyl)isoindoline-2,4-dicarboxamide] yielded an AC50 in assay [1] of under 10 µM. This compound displayed an EC50 in assay [2] of under 10 µM.

In the case of `COc1ccc(NC(=O)C(C)(C)Oc2ccccc2C(=O)NCC2CCCO2)cc1` (centres unmarked) [Compound 32, 2-(2-(4-methoxyphenylcarbamoyl)propan-2-yloxy)-N-((tetrahydrofuran-2-yl)methyl)benzamide], the AC50 in assay [1] is under 10 µM. In addition, the EC50 in assay [2] was under 10 µM; in assay [3], 10 to 100 µM.

In assay [1], `COc1ccc(NC(=O)C(C)(C)Oc2ccc(F)cc2C(=O)NCC2CCCO2)cc1` (centres unmarked) [Compound 33, 2-(2-(4-methoxyphenylcarbamoyl)propan-2-yloxy)-5-fluoro-N-((tetrahydrofuran-2-yl)methyl)benzamide] gave an AC50 of under 10 µM. The EC50 in assay [2] was under 10 µM.

`CN(C)Cc1ccc(NC(=O)C(C)(C)Oc2ccccc2C(=O)NCC2CCCO2)cc1` (centres unmarked) [Compound 34, 2-(2-(4-((dimethylamino)methyl)phenylcarbamoyl)propan-2-yloxy)-N-((tetrahydrofuran-2-yl)methyl)benzamide] yielded an AC50 in assay [1] of under 10 µM. Besides, in assay [2], the EC50 was under 10 µM.

`CC(C)(Oc1ccccc1C(=O)NCC1CCCO1)C(=O)NC1CCOCC1` (centres unmarked) [Compound 35, 2-[1,1-dimethyl-2-oxo-2-(tetrahydropyran-4-ylamino)ethoxy]-N-(tetrahydrofuran-2-ylmethyl)benzamide] displayed an AC50 in assay [1] of under 10 µM. In assay [2], the half-maximal effective concentration (EC50) is under 10 µM.

In assay [1], `CC(C)(Oc1ccccc1C(=O)NCC1CCCO1)C(=O)NC1CCCCC1` (centres unmarked) [Compound 36, 2-[2-(cyclohexylamino)-1,1-dimethyl-2-oxo-ethoxy]-N-(tetrahydrofuran-2-ylmethyl)benzamide] displayed an AC50 of under 10 µM. In assay [2], this compound had an EC50 of under 10 µM.

Take `CC(C)(Oc1ccc(F)cc1C(=O)NCC1CCO1)C(=O)NC1CCC(F)(F)CC1` (centres unmarked) [Compound 38, 2-[2-[(4,4-difluorocyclohexyl)amino]-1,1-dimethyl-2-oxo-ethoxy]-5-fluoro-N-(oxetan-2-ylmethyl)benzamide]: in assay [1], the AC50 was under 10 µM. For the same compound, the EC50 in assay [2] is under 10 µM.

In assay [1], `CC1(C)CCC(NC(=O)C(C)(C)Oc2ccc(F)cc2C(=O)NCC2CCO2)CO1` (centres unmarked) [Compound 39, 2-[2-[(6,6-dimethyltetrahydropyran-3-yl)amino]-1,1-dimethyl-2-oxo-ethoxy]-5-fluoro-N-(oxetan-2-ylmethyl)benzamide] yielded an AC50 of under 10 µM. This compound also registered an EC50 in assay [2] of under 10 µM.

For `O=C(NCC1CCO1)c1cccc2c1CN(C(=O)Nc1ccc(C(F)(F)F)cc1)C2` (centres unmarked) [Compound 40, N4-(oxetan-2-ylmethyl)-N2-[4-(trifluoromethyl)phenyl]isoindoline-2,4-dicarboxamide], the AC50 in assay [1] is under 10 µM. In assay [2], this compound had an EC50 of under 10 µM.

`O=C(NCC1CCO1)c1cccc2c1CN(C(=O)NC1CCC(F)(F)CC1)C2` (centres unmarked) [Compound 41, N2-(4,4-difluorocyclohexyl)-N4-(oxetan-2-ylmethyl)isoindoline-2,4-dicarboxamide]: the AC50 in assay [1] was under 10 µM. This compound also returned an EC50 in assay [2] of under 10 µM.

In assay [1], `COc1ccc(NC(=O)N2Cc3cccc(C(=O)NCC4CCO4)c3C2)cc1Cl` (centres unmarked) [Compound 42, N2-(3-chloro-4-methoxyphenyl)-N4-(oxetan-2-ylmethyl) isoindoline-2,4-dicarboxamide] gave an AC50 of under 10 µM. The same compound yielded an EC50 in assay [2] of under 10 µM.

Regarding `COc1ccc(NC(=O)N2Cc3cccc(C(=O)NCC4CCO4)c3C2)c(Cl)c1` (centres unmarked) [Compound 43, N2-(2-chloro-4-methoxyphenyl)-N4-(oxetan-2-ylmethyl)isoindoline-2,4-dicarboxamide], in assay [1], the AC50 is 10 to 100 µM. In assay [2], this compound came in with an EC50 of under 10 µM.

As to `CNc1ccc(NC(=O)c2nc3cc(F)cc(C(=O)NCC4CCO4)c3o2)cc1` (centres unmarked) [Compound 44, 5-fluoro-N2-(4-(methylamino)phenyl)-N7-(oxetan-2-ylmethyl)benzo[d]oxazole-2,7-dicarboxamide], the AC50 in assay [1] was under 10 µM. In assay [2], this compound gave a 50% effective concentration (EC50) of under 10 µM.

Consider `COc1ccc(NC(=O)c2nc3cc(F)cc(C(=O)NCC4CCO4)c3o2)c(Cl)c1` (centres unmarked) [Compound 45, N2-(2-chloro-4-methoxyphenyl)-5-fluoro-N7-(oxetan-2-ylmethyl)benzo[d]oxazole-2,7-dicarboxamide], for which the AC50 in assay [1] is under 10 µM. The EC50 in assay [2] is under 10 µM.

In turn, `COc1ccc(NC(=O)C(C)(C)Oc2ccc(F)cc2C(NCC2CCO2)C(F)(F)F)cc1` (centres unmarked) [Compound 46, 2-(4-fluoro-2-(2,2,2-trifluoro-1-((oxetan-2-ylmethyl)amino)ethyl)phenoxy)-N-(4-methoxyphenyl)-2-methylpropanamide] yielded an AC50 in assay [1] of under 10 µM. In assay [2], this compound returned an EC50 of under 10 µM.

For `O=C(Nc1ccc(OCF)cc1)c1nc2cc(F)cc(C(=O)NCC3CCO3)c2o1` (centres unmarked) [Compound 47, 5-fluoro-N2-[4-(fluoromethoxy)phenyl]-N7-(oxetan-2-ylmethyl)-1,3-benzoxazole-2,7-dicarboxamid], the AC50 in assay [1] is under 10 µM. Besides, the EC50 in assay [2] is under 10 µM.

`COc1ccc(NC(=O)c2nc3cc(F)cc(C(=O)NCC4CCCO4)c3o2)cc1` (centres unmarked) [Compound 48, 5-fluoro-N2-(4-methoxyphenyl)-N7-(tetrahydrofuran-2-ylmethyl)-1,3-benzoxazole-2,7-dicarboxamide]: the AC50 in assay [1] is under 10 µM. For the same compound, the EC50 in assay [2] is under 10 µM.

In assay [1], `O=C(Nc1ccc(OC(F)(F)F)cc1)c1nc2cc(F)cc(C(=O)NCC3CC(F)CO3)c2o1` (centres unmarked) [Compound 49, 5-fluoro-N7-[(4-fluorotetrahydrofuran-2-yl)methyl]-N2-[4-(trifluoromethoxy)phenyl]-1,3-benzoxazole-2,7-dicarboxamide] came in with an AC50 of under 10 µM. The same compound gave an EC50 in assay [2] of under 10 µM.

`COc1ccc(NC(=O)c2ncc(CC(=O)NCC3CCO3)o2)cc1` (centres unmarked) [Compound 50, N-(4-methoxyphenyl)-5-(2-((oxetan-2-ylmethyl)amino)-2-oxoethyl)oxazole-2-carboxamide] gave an AC50 in assay [1] of under 10 µM. Besides, the EC50 in assay [2] is under 10 µM.
